# From US20150018301A1, “LRRK-2-Mediated Neuronal Toxicity” (THE JOHNS HOPKINS UNIVERSITY, priority 2009, published 2015)
# Key:
# LRRK1 WT [1] = target: T1, LRRK1 WT (Homo sapiens, UniProt Q38SD2); test: In vitro kinase assay: LRRK1-mediated MBP phosphorylation; format: biochemical; conditions: for IC50: Table 3, mean of three experiments
# LRRK1 WT [2] = target: T1, LRRK1 WT; test: In vitro kinase assay: LRRK1 autophosphorylation; format: biochemical; conditions: for IC50: Table 3, mean of three experiments
# LRRK2 WT = LRRK2 WT (Homo sapiens, UniProt Q5S007); test: In vitro kinase assay: LRRK2 autophosphorylation; format: biochemical; conditions: for effect on WT LRRK2 autophosphorylation: dose-response; for IC50: Table 2, mean of three experiments; for LRRK2 autophosphorylation Average ± SEM: compound 16 μM, phosphorylation normalized to absence of compound, mean ± S.E.M. of three experiments; for effect on LRRK2 autophosphorylation: screen at 16 μM
# LRRK2 WT, sequence (Q5S007 whole entry): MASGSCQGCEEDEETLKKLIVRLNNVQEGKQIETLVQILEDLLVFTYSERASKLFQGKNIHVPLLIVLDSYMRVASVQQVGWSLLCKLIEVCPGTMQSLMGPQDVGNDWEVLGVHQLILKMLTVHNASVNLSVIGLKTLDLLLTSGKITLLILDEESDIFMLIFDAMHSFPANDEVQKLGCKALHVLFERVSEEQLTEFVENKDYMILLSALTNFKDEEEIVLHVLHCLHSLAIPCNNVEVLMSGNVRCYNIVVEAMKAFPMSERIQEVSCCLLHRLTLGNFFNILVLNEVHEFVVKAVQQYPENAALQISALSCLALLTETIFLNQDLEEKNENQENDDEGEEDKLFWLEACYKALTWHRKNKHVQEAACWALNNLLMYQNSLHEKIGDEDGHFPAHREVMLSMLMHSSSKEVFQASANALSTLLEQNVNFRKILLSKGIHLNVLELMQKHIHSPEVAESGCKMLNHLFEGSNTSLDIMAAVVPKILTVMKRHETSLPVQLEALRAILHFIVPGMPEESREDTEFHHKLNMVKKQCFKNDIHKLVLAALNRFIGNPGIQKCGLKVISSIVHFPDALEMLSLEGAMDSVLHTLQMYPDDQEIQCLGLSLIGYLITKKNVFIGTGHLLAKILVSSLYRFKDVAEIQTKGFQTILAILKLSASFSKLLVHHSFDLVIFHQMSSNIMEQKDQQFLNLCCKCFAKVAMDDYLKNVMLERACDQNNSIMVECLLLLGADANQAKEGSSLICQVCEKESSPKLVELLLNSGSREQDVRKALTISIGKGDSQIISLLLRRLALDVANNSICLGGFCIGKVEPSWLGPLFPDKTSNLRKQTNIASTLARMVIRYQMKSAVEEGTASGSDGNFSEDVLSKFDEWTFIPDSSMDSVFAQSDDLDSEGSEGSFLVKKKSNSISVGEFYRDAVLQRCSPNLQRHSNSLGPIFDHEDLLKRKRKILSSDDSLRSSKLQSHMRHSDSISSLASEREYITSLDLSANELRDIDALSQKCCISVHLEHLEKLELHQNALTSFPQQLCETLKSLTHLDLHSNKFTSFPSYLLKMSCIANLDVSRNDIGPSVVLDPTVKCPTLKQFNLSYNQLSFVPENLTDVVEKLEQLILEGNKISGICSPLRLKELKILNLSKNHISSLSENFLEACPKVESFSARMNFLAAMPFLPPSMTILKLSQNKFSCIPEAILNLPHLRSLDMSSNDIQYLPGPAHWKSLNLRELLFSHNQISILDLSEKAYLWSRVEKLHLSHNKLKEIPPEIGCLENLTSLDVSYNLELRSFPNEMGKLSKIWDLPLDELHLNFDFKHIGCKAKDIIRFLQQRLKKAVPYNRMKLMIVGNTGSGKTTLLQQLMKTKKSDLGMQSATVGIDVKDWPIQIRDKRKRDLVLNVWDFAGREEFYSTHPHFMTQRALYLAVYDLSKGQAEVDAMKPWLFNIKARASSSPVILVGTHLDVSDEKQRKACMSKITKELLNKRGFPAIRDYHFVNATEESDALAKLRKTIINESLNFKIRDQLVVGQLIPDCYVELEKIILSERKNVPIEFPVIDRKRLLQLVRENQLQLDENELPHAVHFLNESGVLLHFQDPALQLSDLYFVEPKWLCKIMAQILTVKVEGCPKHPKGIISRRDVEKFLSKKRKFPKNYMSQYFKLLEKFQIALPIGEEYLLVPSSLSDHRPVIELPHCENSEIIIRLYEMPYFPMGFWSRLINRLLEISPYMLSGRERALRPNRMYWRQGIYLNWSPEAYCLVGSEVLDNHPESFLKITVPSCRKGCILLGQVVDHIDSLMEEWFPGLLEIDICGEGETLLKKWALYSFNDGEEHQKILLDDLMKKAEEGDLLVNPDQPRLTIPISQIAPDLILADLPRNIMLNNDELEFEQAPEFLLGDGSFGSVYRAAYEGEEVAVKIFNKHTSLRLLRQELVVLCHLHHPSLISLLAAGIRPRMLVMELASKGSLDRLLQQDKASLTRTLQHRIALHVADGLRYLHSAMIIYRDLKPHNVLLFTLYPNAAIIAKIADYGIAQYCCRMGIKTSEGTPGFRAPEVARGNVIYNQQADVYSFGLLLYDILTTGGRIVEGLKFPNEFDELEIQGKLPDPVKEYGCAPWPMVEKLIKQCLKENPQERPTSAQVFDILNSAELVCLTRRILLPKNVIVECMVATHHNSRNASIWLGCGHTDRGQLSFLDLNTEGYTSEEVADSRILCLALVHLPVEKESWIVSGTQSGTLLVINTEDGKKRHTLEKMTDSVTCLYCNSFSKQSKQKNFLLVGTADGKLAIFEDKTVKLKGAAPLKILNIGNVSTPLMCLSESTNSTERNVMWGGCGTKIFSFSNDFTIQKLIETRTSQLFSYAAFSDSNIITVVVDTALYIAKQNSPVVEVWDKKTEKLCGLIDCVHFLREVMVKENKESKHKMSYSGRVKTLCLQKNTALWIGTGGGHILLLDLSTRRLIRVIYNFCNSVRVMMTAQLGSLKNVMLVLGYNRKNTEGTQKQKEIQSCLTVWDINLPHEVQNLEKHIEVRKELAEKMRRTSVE
# [3] = tested on: C. elegans expressing LRRK2 G2019S in DA neurons; test: Transgenic nematode model of LRRK2 G2019S-induced DA neurodegeneration; format: in vivo, Caenorhabditis elegans; conditions: for rescue of DA neurodegeneration: 7 day-old worms; for worms with wild-type DA neurons (4 CEP and 2 ADE): 7-day-old worms, n=90, 48% with 1% DMSO
# Method: Nematodes were maintained following the standard procedures. Brenner, S., 771 GENETICS 71-94 (1974). Isogenic worm strains expressing LRRK2, G2019S, UAXX [baInlX; Pdat-1::LRRK2 G2019S, Pdat-1::gfp] were generated via microinjection, integrated into the genome and out-crossed three times. Age-synchronized worms were obtained by treating gravid adults with 2% sodium hypochlorite and 0.5M NaOH to isolate embryos. Lewis, J. A., 48 METHODS CELL BIOL. 3-29 (1995). These embryos were treated with indicated concentrations of LRRK2 kinase inhibitors, which were dissolved in 1% DSMO, for 24 h. at 20° C. with gentle shaking. The worms were then washed and transferred into NGM plates seeded with OP50 bacteria, and incubated as 20° C. The six anterior DA neurons (4 CEP and 2 ADE neurons) of 30 animals/trial were examined for neurodegeneration when the animals were 7 days old. A total of 90 animals for each treatment were analyzed (3 trials of 30 animals/trial). […] See Hamamichi et al., 105(2) PROC. NATL. ACAD. SCI. USA 728-33 (2008); and Cao et al, 25 J. NEUROSCI. 3801-12 (2005). For each trial, 30 worms were transferred into a 2% agarose pad, immobilized with 2 mM levamisole, and analyzed using Nikon Eclipse E800 epifluorescence microscope equipped with Endow GFP HYQ filter cube (Chrom Technology, Rockingham, Vt.). Images were captured with a Cool Snap CCD camera (Photometrics, Tucson, Ariz.) driven by MetaMorph software (Universal Imaging, West Chester, Pa.).
# To determine whether the LRRK2 kinase inhibitors protect against LRRK2-induced neurodegeneration in vivo, the LRRK2 kinase inhibitors were tested in the C. elegans model of LRRK2 G2019S-induced neurodegeneration described above. The DA transporter (dat-1) was used to direct expression of LRRK2 G2019S in DA neurons.
# [4] = tested on: rat primary cortical neuronal cultures transfected with G2019S LRRK2; test: LRRK2-induced neuronal toxicity in primary cortical neuronal cultures (neurite shortening, TUNEL); format: cell-based; conditions: 0.5 μM
# Method: Representative photomicrographs of each experimental group. LRRK2 and eGFP constructs were combined in a molar ratio of 10:1, respectively, and transfected by using of Lipofectamine 2000 (Invitrogen) at DIV (day in vitro) 14 into rat primary cortical neuronal cultures. Compounds (0.5 μM) were administrated at the time of transfection and continued until toxicity assessments. On DIV 16, images were collected on a Zeiss Automatic stage with Axiovision 6.0. (a) Low magnified photomicrographs; (b and c) High magnified photomicrographs. Scale bar=50 μm (a) and 10 μm (b and c);
# Primary cortical neuronal cultures were prepared from gestational day 15 fetal rats as previously described. Gonzalez-Zulueta, M., et al. Manganese superoxide dismutase protects nNOS neurons from NMDA and nitric oxide-mediated neurotoxicity. J Neurosci 18, 2040-2055 (1998). All procedures used in this study were approved by the Johns Hopkins Medical Institute Animal Care Committee. Cell viability assays and DNA fragmentation (TUNEL assay) were performed as previously described. Smith, W. W., et al. Kinase activity of mutant LRRK2 mediates neuronal toxicity. Nat Neurosci 9, 1231-1233 (2006); West, A. B., et al. Parkinson's disease-associated mutations in LRRK2 link enhanced GTP-binding and kinase activities to neuronal toxicity. Hum Mol Genet 16, 223-232 (2007). The cortex was dissected, incubated for 15 min in 0.027% trypsin, and then transferred to modified Eagle's medium (MEM)/10% horse serum/10% fetal bovine serum/2 mM glutamine followed by trituration. Dissociated cells were plated at a density of 3-4×10^5 cells per well in polyornithine-coated plates. After 4 days the cells were treated with 10 μg of 5-fluoro-2′-deoxyuridine to prevent proliferation of nonneuronal cells. Cells were maintained in MEM/5% horse serum/2 mM glutamine in 8% CO2 incubator. The medium was changed twice weekly. For assessment of LRRK2-mediated neuronal injury, LRRK2 and eGFP constructs were combined in a molar ratio of 10:1, respectively, and transfected into neurons with Lipofectamine 2000 (Invitrogen) at DIV (day in vitro) 14. On DIV 16, images were collected on a Zeiss Automatic stage with Axiovision 6.0. Viable neurons were defined as having at least one smooth extension (neurite) with twice the length of the cell body. The percentage of eGFP-positive injured neurons in each experimental group relative to those neurons transfected with eGFP was calculated.
# [5] = from literature; cited from earlier work
# [6] = tested on: HSV-G2019S LRRK2 dopaminergic neurotoxicity; test: HSV amplicon-based mouse model of LRRK2 dopaminergic neurotoxicity; format: in vivo; conditions: for loss of tyrosine hydroxylase-positive neurons induced by HSV-G2019S LRRK2: 2.5 mg per kg i.p. twice daily, 3 weeks, versus DMSO- and indirubin-injected controls
# T1 sequence (Q38SD2 whole entry): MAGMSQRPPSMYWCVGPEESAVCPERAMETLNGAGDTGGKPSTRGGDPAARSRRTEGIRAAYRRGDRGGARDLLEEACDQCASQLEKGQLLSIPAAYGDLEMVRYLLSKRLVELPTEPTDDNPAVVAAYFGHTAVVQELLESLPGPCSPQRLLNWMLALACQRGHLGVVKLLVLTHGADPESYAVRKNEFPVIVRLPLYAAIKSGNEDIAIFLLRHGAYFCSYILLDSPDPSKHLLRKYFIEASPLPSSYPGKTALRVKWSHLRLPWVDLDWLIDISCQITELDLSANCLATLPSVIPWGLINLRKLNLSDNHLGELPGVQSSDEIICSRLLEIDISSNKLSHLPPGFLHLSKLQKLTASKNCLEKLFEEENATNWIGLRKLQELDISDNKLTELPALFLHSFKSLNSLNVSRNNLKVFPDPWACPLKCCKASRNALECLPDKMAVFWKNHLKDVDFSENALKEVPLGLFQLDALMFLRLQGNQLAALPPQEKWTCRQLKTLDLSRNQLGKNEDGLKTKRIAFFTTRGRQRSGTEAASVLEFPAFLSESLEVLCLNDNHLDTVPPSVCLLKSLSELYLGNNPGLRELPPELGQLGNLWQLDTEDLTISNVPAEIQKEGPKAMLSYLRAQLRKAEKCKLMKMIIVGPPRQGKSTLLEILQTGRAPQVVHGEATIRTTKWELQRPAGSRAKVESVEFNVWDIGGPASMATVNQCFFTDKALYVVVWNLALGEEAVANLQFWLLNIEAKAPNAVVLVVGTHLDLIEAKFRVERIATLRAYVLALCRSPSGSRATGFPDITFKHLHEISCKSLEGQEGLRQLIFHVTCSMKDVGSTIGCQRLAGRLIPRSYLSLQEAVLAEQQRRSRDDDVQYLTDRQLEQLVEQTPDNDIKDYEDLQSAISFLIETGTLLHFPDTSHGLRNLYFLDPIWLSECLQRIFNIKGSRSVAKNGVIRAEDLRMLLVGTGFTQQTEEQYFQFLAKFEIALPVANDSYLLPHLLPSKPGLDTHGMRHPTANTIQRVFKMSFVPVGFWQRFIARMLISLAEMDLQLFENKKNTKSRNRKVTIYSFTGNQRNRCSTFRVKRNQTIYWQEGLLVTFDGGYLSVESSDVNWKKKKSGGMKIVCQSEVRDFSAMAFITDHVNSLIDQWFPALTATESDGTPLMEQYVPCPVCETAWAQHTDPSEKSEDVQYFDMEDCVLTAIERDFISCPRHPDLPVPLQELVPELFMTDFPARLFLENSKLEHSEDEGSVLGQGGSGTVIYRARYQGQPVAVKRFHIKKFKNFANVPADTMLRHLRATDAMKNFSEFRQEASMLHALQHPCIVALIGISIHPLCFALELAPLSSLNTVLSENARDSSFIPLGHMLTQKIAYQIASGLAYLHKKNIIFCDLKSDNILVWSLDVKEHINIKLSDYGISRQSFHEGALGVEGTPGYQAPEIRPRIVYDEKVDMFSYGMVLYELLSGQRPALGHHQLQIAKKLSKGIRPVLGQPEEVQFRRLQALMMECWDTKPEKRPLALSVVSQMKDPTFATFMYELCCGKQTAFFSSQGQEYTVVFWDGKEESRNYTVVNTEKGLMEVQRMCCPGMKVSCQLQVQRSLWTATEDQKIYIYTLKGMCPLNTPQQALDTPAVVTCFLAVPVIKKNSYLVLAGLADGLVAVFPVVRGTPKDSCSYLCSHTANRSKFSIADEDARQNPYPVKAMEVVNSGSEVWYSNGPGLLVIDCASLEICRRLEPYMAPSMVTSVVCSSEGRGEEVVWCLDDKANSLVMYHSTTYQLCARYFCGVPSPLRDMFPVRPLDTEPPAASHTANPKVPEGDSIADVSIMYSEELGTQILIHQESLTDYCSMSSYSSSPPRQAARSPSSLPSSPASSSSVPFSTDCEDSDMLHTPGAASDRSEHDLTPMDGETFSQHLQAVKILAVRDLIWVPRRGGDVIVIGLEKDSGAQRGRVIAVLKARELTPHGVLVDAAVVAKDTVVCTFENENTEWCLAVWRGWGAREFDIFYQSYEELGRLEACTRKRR
Compound,effect on LRRK1 MBP phosphorylation (LRRK1 WT [1]),effect on LRRK1 autophosphorylation (LRRK1 WT [2]),effect on WT LRRK2 autophosphorylation (LRRK2 WT),rescue of DA neurodegeneration [3],G2019S LRRK2 toxicity [4],crossing of the blood-brain barrier [5],IC50 (LRRK1 WT [1]),IC50 (LRRK1 WT [2]),IC50 (LRRK2 WT),LRRK2 autophosphorylation Average ± SEM (LRRK2 WT),effect on LRRK2 autophosphorylation (LRRK2 WT),G2019S LRRK2 cell death (TUNEL) [4],G2019S LRRK2 cell injury (neurite shortening) [4],loss of tyrosine hydroxylase-positive neurons induced by HSV-G2019S LRRK2 [6],worms with wild-type DA neurons (4 CEP and 2 ADE) ([3]; 10 μM),worms with wild-type DA neurons (4 CEP and 2 ADE) ([3]; 25 μM),"increase in ILB4-positive cells in striatum and substantia nigra pars compacta ([6]; G2019S LRRK2 mice, 2.5 mg/kg i.p. twice daily)","reduction in the density of tyrosine hydroxylase-positive fibers (striatum) ([6]; HSV-LRRK2 G2019S mice, 2.5 mg/kg i.p. twice daily)"
"Cc1ccc(NC(=O)c2cccc(N(C)C)c2)cc1NC(=O)c1ccc(O)cc1 [Inhibitor 53, ZM336372]",minimal to no effect,minimal to no effect,no effect,failed to rescue,failed to inhibit,,,,,,,,,,,,,
"O=C1Nc2ccccc2/C1=C1/Nc2ccccc2/C1=N\O [Inhibitor 70, Indirubin-3-monooxine]",inhibited,inhibited,inhibited,,,known to cross the blood-brain barrier,3.1 µM,0.79 µM,1.75 µM,6.0 ± 6.5 % of control,substantially inhibited,attenuated,attenuated,attenuated,,,,
"O=C1Nc2ccc(I)cc2/C1=C/c1cc(Br)c(O)c(Br)c1 [Inhibitor 56, GW5074]",,,,protect worms from neurodegeneration,,known to cross the blood-brain barrier,3.25 µM,0.73 µM,0.88 µM,4.6 ± 2.9 % of control,substantially inhibited,attenuated,attenuated,attenuated,66%,67%,prevented,rescued
